Values quoted from earlier work in US9987231B2, “Compositions and methods for delivery of omeprazole plus acetylsalicylic acid” (POZEN INC., priority 2011, dated 2018).

- Systemic bioavailability (after repeated dose): about 60%
- Orally given dose excreted as metabolites in the urine (in vivo, po): About 80%
- Time in which absorption is usually completed (small intestine): 3 to 6 h
- Plasma protein binding (Plasma protein): about 95%
Compound: COc1ccc2[nH]c([S+]([O-])Cc3ncc(C)c(OC)c3C)nc2c1 (racemic) [Omeprazole]
